Laboratory results from US12180213B2, “Substituted pyrazoles showing serotonin 5-HT receptor activity” (Sumitomo Pharma Co., Ltd., priority 2018, dated 2024).
Where two headings read alike, the source gives them in different places.

Columns and labels:
[1] = target: T1, human 5-HT1A receptor (Homo sapiens (Human), UniProt P08908); test: Test 1: binding activity for human 5-HT1A receptor ([3H]8-OH-DPAT); details: CHO cell membrane fraction
Protocol: (§1) Test 1: Evaluation of binding activity for human 5-HT1A receptor, human 5-HT2A receptor, and human D2 receptor
(§2) Binding affinity of the present compound for human 5-HT1A receptor, human 5-HT2A receptor, and human D2 receptor was measured by the following procedures.
(§3) Each mixture was incubated at room temperature for 60 minutes. Then, the mixture was added quickly on a glassfiber filter plate (Multiscreen FB, Millipore, Inc.) coated with 0.3% aqueous polyethylenimine, and vacuum-filtered. Radioactivity remaining on the filter was measured with a liquid scintillation counter (PerkinElmer, Inc.). Binding inhibition rate was calculated from the following formula.
IC50 value was calculated by Hill analysis (Physiology, 1910, 40, 190-200). Ki of each compound was calculated from the following formula.
(§4) Binding inhibition constant (Ki)=IC50/(1+S/Kd) wherein S is concentration of ligand; Kd is a binding dissociation constant of ligand to membrane, which is calculated from a saturated binding experiment conducted with the same cell membrane. A small Ki value means strong binding ability to a receptor.

[2] = target: T1, human 5-HT1A receptor; test: Test 2: agonist activity for human 5-HT1A receptor ([35S]GTPγS binding); format: biochemical; details: for Emax at 10 µM / 5-HT1A agonist activity Emax: agonist activity in the presence of 10 μM of compound, relative to 100 μmol/L 5-HT
Protocol: Test 2: Evaluation of Agonist Activity for Human 5-HT1A Receptor
CHO cell membrane fraction in which human 5-HT1A receptor was expressed as used in Test 1 was purchased. To a buffer containing guanosine diphosphate were added a test compound dissolved in DMSO, each receptor membrane sample diluted with buffer, and [^35S] Guanosine 5′-O-[gamma-thio]triphosphate (GTPγS). The mixture was incubated at room temperature for 60 minutes. Then, the mixture was added quickly on a glassfiber filter plate (Multiscreen FB, Millipore, Inc.), and vacuum-filtered. Radioactivity remaining on the […] was measured with a liquid scintillation counter. Agonist activity was calculated from the following formula.

[3] = Test 4: metabolic stability test in human hepatic microsome; format: in vitro ADME; details: 0.1 mg/mL microsome, 0.1 μmol/L compound, 37° C., 30 minutes
Protocol: Test 4: Metabolic Stability Test in Human Hepatic Microsome
The stability of the present compound in human hepatic microsome metabolism was evaluated as mentioned below. Human hepatic microsome was obtained from Xenontech. Human hepatic microsome, NADPH, and each test compound were mixed in 25 mmol/L phosphate buffer solution (pH 7.4) to reach the following concentrations as shown below, and the mixture was incubated at 37° C. for 30 minutes. • Human hepatic microsome: 0.1 mg/mL • NAPDH: 3.2 mmol/L • Test compound: 0.1 μmol/L
The residual ratio of the test compound in each sample after 30 minutes was measured by LC-MS, and the metabolic stability in human hepatic microsome was calculated from the following formula. Metabolic stability in human hepatic microsome (mL/min/mg protein)=−LN(residual ratio)/30/0.1

[4] = target: T2, human 5-HT2A receptor (Homo sapiens (Human), UniProt P28223); test: Test 1: binding activity for human 5-HT2A receptor ([3H]Ketanserin); details: CHO cell membrane fraction
Protocol: as §1, §2, §3
(§5) Ki of each compound was calculated from the following formula.
as §4

[5] = target: hERG channel (Homo sapiens (Human), UniProt Q12809); test: Test 6-1: inhibitory activity for hERG channel (auto patch clamp, Qpatch); format: cell-based; details: whole cell patch clamp, read-out: hERG inhibition IC50
Protocol: Test 6-1: Evaluation of Inhibitory Activity for hERG Channel
Inhibitory activity of the present compound for hERG channel was measured by whole cell patch clamp method with an auto patch clamp system using CHO cells in which hERG channel involved in human rapidly activating delayed rectifier potassium current (IKr) was forcibly expressed.
(Preparation of cell suspension)
hERG-CHO cells purchased from ChanTest Cop. were cultured in a CO2 incubator at 37° C., and dissociated from a flask with trypsin shortly before the measurement of hERG current, to prepare a cell suspension.
(Preparation of Solution)
Extracellular and intracellular fluid used in the measurement were prepared as follows.
Intracellular fluid: 5.4 mmol/L CaCl2, 1.8 mmol/L MgCl2, 10 mmol/L HEPES, 31 mmol/L KOH, 10 mmol/L EGTA, 120 mmol/L KCl, 4 mmol/L Na2-ATP
Test compound solution: Test compound was dissolved in DMSO to reach the concentration of 2 mmol/L or 20 mmol/L, in order to prepare a test compound solution. […] (Measurement of Current Value and Data Analysis)
The cell suspension, the extracellular fluid, the intracellular fluid, and the measurement plate were set in the auto patch clamp system, and hERG current was measured by whole cell patch clamp method. […] Each pulse interval was 15 seconds. The data analysis was carried out with Qpatch Assay Software (Biolin Scientific). The test was carried out by applying incrementally 4 concentrations of each test compound, and the average of the maximum peak tail currents which were obtained from the last 3 stimulations in each concentration was determined as the evaluated data.

[6] = target: human D2 receptor (Homo sapiens (Human), UniProt P14416); test: Test 1: binding activity for human D2 receptor ([3H]Spiperone); details: for Ki: [3H]Spiperone, CHO cell membrane fraction; for D2 Ki/5-HT1A Ki: ratio of D2 Ki to 5-HT1A Ki; for D2 Ki/5-HT2A Ki: ratio of D2 Ki to 5-HT2A Ki
Protocol: as §1, §2, §3, §5, §4

[7] = target: T2, human 5-HT2A receptor; test: Test 3: antagonist activity for human 5-HT2A receptor (aequorin luminescence, CHO-K1 cells); format: cell-based; details: against 1 nmol/L 5-HT
Protocol: Test 3: Evaluation of Antagonist Activity for Human 5-HT2A Receptor
Aequorin, Gα16 protein, and each receptor were transiently expressed in CHO-K1 cells (Chinese hamster ovary). […] Antagonist activity was calculated from the following formula.
Antagonist activity (%)=100×{(Luminescence of well in the presence of 1 nmol/L 5-HT−Luminescence of well containing solvent)−(Luminescence of well in the presence of test compound and 1 nmol/L 5-HT−Luminescence of well containing solvent)}/(Luminescence of well in the presence of 1 nmol/L 5-HT−Luminescence of well containing solvent)

[8] = human, CHO cells that express hERG

T2 sequence (P28223 whole entry): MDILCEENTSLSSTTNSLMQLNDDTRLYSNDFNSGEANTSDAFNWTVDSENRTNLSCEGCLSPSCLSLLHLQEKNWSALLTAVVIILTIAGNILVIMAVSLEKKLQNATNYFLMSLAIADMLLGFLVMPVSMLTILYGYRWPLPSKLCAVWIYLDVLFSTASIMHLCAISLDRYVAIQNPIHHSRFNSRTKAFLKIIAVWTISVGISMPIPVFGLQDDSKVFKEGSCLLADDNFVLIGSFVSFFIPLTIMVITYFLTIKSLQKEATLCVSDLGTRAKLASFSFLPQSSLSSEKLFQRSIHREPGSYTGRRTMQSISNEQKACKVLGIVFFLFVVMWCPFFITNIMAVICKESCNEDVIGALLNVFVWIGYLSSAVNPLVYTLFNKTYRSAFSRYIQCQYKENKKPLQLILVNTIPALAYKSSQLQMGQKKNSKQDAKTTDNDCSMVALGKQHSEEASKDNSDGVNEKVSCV
Chain of human D2 receptor (P14416 whole entry): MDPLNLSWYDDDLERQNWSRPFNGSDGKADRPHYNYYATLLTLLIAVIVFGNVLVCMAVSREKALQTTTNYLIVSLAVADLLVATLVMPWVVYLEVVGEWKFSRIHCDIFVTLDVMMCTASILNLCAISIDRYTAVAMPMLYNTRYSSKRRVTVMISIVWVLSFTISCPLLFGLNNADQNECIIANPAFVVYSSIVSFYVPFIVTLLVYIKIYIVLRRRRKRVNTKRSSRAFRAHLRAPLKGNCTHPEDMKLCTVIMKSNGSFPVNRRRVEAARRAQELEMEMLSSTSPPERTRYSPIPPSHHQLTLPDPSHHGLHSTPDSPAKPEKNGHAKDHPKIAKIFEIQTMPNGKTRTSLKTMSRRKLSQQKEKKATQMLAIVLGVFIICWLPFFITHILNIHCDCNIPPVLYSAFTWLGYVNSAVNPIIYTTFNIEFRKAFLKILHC
T1 sequence (P08908 whole entry): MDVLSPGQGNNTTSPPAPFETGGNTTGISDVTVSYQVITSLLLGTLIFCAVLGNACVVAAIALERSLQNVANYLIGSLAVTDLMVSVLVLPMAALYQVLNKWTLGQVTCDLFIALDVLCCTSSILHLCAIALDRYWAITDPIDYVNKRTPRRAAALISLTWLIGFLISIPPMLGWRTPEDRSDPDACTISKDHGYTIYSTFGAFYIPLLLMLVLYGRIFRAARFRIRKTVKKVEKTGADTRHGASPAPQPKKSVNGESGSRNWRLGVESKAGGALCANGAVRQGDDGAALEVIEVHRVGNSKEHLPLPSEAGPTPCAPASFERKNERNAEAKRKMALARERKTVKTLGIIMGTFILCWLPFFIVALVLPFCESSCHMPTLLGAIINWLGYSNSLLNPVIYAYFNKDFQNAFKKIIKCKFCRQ
Chain of hERG channel (Q12809 whole entry): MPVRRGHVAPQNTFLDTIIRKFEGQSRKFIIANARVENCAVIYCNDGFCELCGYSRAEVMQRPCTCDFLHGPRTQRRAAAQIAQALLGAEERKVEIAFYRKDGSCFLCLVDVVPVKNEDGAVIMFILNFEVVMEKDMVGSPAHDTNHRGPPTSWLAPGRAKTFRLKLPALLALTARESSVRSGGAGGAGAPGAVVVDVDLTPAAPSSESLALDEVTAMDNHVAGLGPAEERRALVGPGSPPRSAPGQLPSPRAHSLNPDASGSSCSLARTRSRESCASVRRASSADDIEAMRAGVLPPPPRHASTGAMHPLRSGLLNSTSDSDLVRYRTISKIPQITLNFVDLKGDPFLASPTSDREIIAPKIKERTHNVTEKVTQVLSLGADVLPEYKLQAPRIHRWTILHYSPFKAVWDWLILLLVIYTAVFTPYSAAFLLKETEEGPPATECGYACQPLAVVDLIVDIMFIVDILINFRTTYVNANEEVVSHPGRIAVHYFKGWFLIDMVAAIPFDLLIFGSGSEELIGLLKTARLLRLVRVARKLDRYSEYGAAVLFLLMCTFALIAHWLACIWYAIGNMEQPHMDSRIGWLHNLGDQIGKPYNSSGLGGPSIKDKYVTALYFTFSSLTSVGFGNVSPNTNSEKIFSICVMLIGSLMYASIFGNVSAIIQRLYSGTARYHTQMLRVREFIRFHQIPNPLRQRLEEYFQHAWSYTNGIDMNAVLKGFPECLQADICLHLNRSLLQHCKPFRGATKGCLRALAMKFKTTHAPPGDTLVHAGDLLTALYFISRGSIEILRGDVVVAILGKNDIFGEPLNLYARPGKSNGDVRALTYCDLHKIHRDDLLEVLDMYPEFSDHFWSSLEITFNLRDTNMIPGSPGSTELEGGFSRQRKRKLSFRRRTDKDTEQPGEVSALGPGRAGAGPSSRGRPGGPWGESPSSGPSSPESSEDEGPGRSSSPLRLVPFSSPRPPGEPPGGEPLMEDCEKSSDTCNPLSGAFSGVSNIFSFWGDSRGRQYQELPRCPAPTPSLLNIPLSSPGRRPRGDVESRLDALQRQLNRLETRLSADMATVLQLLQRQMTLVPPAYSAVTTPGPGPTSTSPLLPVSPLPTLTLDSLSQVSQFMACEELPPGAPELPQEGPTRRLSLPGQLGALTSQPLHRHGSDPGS

| Structure (SMILES) | Ki [1] [nM] | Emax at 10 µM [2] [%] | Metabolic stability in human hepatic microsome [3] [mL/min/mg protein] | Ki [4] [nM] | other results |
| --- | --- | --- | --- | --- | --- |
| O=C1c2oc(C3CC3)nc2CCC1CCN1CCN(c2nsc3ccccc23)CC1 (stereo not drawn) [Example 67] | 1.17 | 65 | 0.269 | – | – |
| Cn1ncc2c1CCCC(CCN1CCN(c3noc4ccccc34)CC1)C2=O (stereo not drawn) [Example 30] | – | 42 | 0.065 | 0.76 | IC50 [5, 8]: 900 nM |
| Cc1nc2c(o1)CCN(CCN1CCN(c3noc4ccccc34)CC1)C2=O [Example 39] | 0.84 | 61 | 0.016 | – | Ki [6]: 1860 nM |
| O=c1c2ncccc2ccn1CCN1CCN(c2nsc3cc(F)ccc23)CC1 [Example 12] | 7.03 | 32 | 0.02 | – | Ki [6]: 311 nM; D2 Ki/5-HT1A Ki [6]: 44; D2 Ki/5-HT2A Ki [6]: 111 |
| Cn1nc(Br)c2c1CCN(CCN1CCC(c3noc4ccccc34)CC1)C2=O [Example 70] | – | – | – | – | 5-HT1A agonist activity Emax [2]: 50% |
| O=C1c2ncccc2CCN1CCN1CCN(c2noc3cc(Cl)ccc23)CC1 [Example 124] | – | – | – | – | Ki [6]: > 10000 nM |
| Cc1cc2c(o1)C(=O)N(CCN1CCN(c3nsc4ccccc34)CC1)CC2 [Example 45] | – | 65 | 0.032 | 3.1 | IC50 [5, 8]: 7000 nM |
| Cn1nc2c(c1Br)C(=O)N(CCN1CCN(c3nsc4ccccc34)CC1)CC2 [Example 73] | – | – | – | – | 5-HT1A agonist activity Emax [2]: 62% |
| COc1ccc2c(n1)C(=O)N(CCN1CCC(c3noc4ccccc34)CC1)CC2 [Example 187] | – | – | <0.05 | – | – |
| COc1ccc2c(n1)C(=O)N(CCN1CCN(c3noc4ccccc34)CC1)CC2 [Example 186] | – | – | 0.095 | – | – |
| Cc1noc2c1C(=O)N(CCN1CCN(c3noc4ccccc34)CC1)CCC2 [Example 38] | 13.5 | 56 | 0.136 | 4.44 | IC50 [5, 8]: 500 nM |
| O=C1c2cnccc2CCN1CCN1CCC(c2noc3ccccc23)CC1 [Example 13] | – | – | <0.01 | – | IC50 [7]: 71 nM; IC50 ([5]; hERG-CHO cells): 1100 nM |
| Cn1nc(Br)c2c1CCN(CCN1CCN(c3nsc4ccccc34)CC1)C2=O [Example 69] | – | – | – | – | EC50 ([2]; concentration at which half the activity of Emax was obtained): 33.9 nM |
| CC1CC(CCN2CCC(c3noc4ccccc34)CC2)C(=O)c2ccn(C)c21 (stereo not drawn) [Example 82] | 0.61 | 61 | 0.072 | 0.87 | – |
| COc1ccc2c(N3CCN(CCN4CCc5cccnc5C4=O)CC3)noc2c1 [Example 149] | 184 | 16 | – | 217 | Ki [6]: > 10000 nM; D2 Ki/5-HT1A Ki [6]: >54.3; D2 Ki/5-HT2A Ki [6]: >46.1 |
